# Measured values: PubChem BioAssay (NCI)
# “And” between values parts separate entries of the source, which are not always exact repeats. Identical values can stand only once.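 Five compound concentrations were applied to cells in 96-well plates for 48 hours; endpoints were derived by simple linear interpolation of the resulting dose-response curve. GI50 is the concentration that inhibits growth by half. TGI: concentration producing complete growth inhibition.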
# Assays:
# Experiment in all cases: inhibition of tumour cell growth, NCI panel, 48 h
# NCI-H460 lung = tested on: NCI-H460 lung
# UACC-257 melanoma = tested on: UACC-257 melanoma
# 786-0 renal = tested on: 786-0 renal
# SK-OV-3 ovarian = tested on: SK-OV-3 ovarian
# HCT-15 colon = tested on: HCT-15 colon
# HCT-116 colon = tested on: HCT-116 colon
# HT29 colon = tested on: HT29 colon
# LOX IMVI melanoma = tested on: LOX IMVI melanoma
# HOP-62 NSCLC = tested on: HOP-62 NSCLC
# SR leukemia = tested on: SR leukemia
SMILES,GI50 (NCI-H460 lung) [µM],TGI (NCI-H460 lung) [µM],GI50 (UACC-257 melanoma) [µM],TGI (UACC-257 melanoma) [µM],GI50 (786-0 renal) [µM],TGI (786-0 renal) [µM],GI50 (SK-OV-3 ovarian) [µM],TGI (SK-OV-3 ovarian) [µM],GI50 (HCT-15 colon) [µM],TGI (HCT-15 colon) [µM],GI50 (HCT-116 colon) [µM],TGI (HCT-116 colon) [µM],GI50 (HT29 colon) [µM],TGI (HT29 colon) [µM],GI50 (LOX IMVI melanoma) [µM],TGI (LOX IMVI melanoma),GI50 (HOP-62 NSCLC) [µM],TGI (HOP-62 NSCLC) [µM],GI50 (SR leukemia) [µM],TGI (SR leukemia) [µM]
COc1ccc2c(c1)c(-c1ccc(-c3cn(C)c4ccc(OC)cc34)o1)cn2C,9.89,> 100,27,> 100,> 100,> 100,> 100,> 100,4.22,29.7,88,> 100,22,> 100,10.4,> 100 µM,> 100,> 100,–,–
COc1ccc2c(c1OC)C(C=C(c1ccccc1)c1ccccc1)CN(C)C2 (configuration not stated),–,31.9,–,54.8,–,39.5,–,> 100,–,33,–,20.7,–,42.7,–,–,–,62.2,–,–
CSC1SCC2C(=O)N(C)C(C(C)C)C(=O)OCC(NC(=O)c3cnc4ccccc4n3)C(=O)NC(C)C(=O)N(C)C1C(=O)N(C)C(C(C)C)C(=O)OCC(NC(=O)c1cnc3ccccc3n1)C(=O)NC(C)C(=O)N2C (configuration not stated),< 0.001,–,< 0.001,–,< 0.001,–,0.00174,–,0.00322,–,–,–,< 0.001,–,< 0.001,–,< 0.001,–,–,–
C=C1C(=O)O[C@H]2[C@H]1CC/C(Cn1cc(-c3ccsc3)nn1)=C\CC[C@@]1(C)O[C@@H]21,4.71,18.9,–,–,1.76,3.96,17.4,31.4,1.11,2.54,1.16,2.76,1.66,3.64,1.28,2.61 µM,4.9,18.9,0.56,9.39
Cc1ccc(-c2cc(=O)c3cc(C)c(C)c(C(=O)O)c3o2)cc1[N+](=O)[O-],–,> 100,–,> 100,–,> 100,–,> 100,–,> 100,–,> 100,–,> 100,–,> 100 µM,–,–,–,–
C/C(=N\NS(=O)(=O)c1c(C)cc(C)cc1C)c1ccc[n+]([O-])n1,–,> 100,–,22.7,–,36,–,> 100,–,28.5,–,25.7,–,36,–,–,–,> 100,–,57.7
COc1cccc(NC(=O)c2ccc(NC3=C(Cl)C(=O)N(Cc4ccccc4)C3=O)cc2)c1,12.3,30.4,16.2,38.5,18.3,33.9,30.5,85.4,1.4,2.71,15,28.3,5.74,17.4,2.71,9.11 µM,19.1,34.8,–,–
CCCCCCC(O)C(O)CCC(O)C1CCC(CCCCC(O)CC2=CC(C)OC2=O)O1 (configuration not stated),10.5,26.9,3.16,41.9,21.9,52.1,–,–,19.2,80.4,1.28,25.3,–,6.82,4.48,5.02 µM and 27.7 µM,12.4,26,–,–
CCC(C)(C)NS(=O)(=O)c1ccccc1,–,> 100,–,> 100,–,> 100,–,> 100,–,> 100,–,> 100,–,> 100,–,–,–,> 100,–,–
CC(=O)Oc1cc(Cl)c(OC(C)=O)c2c(OC(C)=O)c(C)c(O[Si](C)(C)C(C)(C)C)cc12,–,16.5,–,11.6,–,28.1,–,–,–,20.3,–,13.6,–,–,–,12.9 µM,–,34,–,19.1
CC(C)c1cc(C(=O)[O-])c(O)c(C(C)C)c1.CC(C)c1cc(C(=O)[O-])c(O)c(C(C)C)c1.CC(C)c1cc(C(=O)[O-])c(O)c(C(C)C)c1.CC(C)c1cc(C(=O)[O-])c(O)c(C(C)C)c1.CC(C)c1cc(C(=O)[O-])c(O)c(C(C)C)c1.CC(C)c1cc(C(=O)[O-])c(O)c(C(C)C)c1.[Cu+2].[Mn+2].[Mn+2],15.8,32.2,29.6,67.1,20.3,46.9,2.61,16.1,39.3,> 100,21.2,37.8,15.6,31.4,17,36.3 µM,21,42,–,–
COc1ccc(C[C@H]2NC[C@H](O)[C@H]2OC(C)=O)cc1,–,0.611,–,2.89,–,0.137,–,0.895,–,–,–,0.146,–,0.179,–,0.0409 µM,–,0.193,–,–
CCOC(=O)c1csc(-c2nc(CCNC(=O)c3ccccc3)sc2Cl)n1,–,> 100,–,> 100,–,> 100,–,> 100,–,> 100,–,> 100,–,> 100,–,–,–,> 100,–,> 100
COc1c(Cl)[c]([Hg][O]C(C)=O)c(NCC(C)=O)c(OC)[c]1[Hg][O]C(C)=O,33.2,> 100,15.4,29.9,3.44,12.9,24.5,45.6,–,–,–,–,19.5,48.2,33.4,> 100 µM,22.3,37.3,–,–
COc1cc(/C=C2\Cc3ccccc3C2=O)cc(OC)c1OC,–,> 100,–,> 100,–,> 100,–,> 100,–,> 100,–,> 100,–,> 100,–,> 100 µM,–,> 100,–,–
COc1ccc(/C=C2\CCc3ccccc3C2=O)cc1OC,–,> 100,–,43.1,–,> 100,–,78.9,–,45.5,–,36.7,–,> 100,–,–,–,> 100,–,–
CCOc1ccc(N=Cc2ccc3ccccc3n2)cc1,–,> 100,–,> 100,–,> 100,–,> 100,–,> 100,–,> 100,–,> 100,–,> 100 µM,–,> 100,–,–
CC1(C)Oc2ccccc2[N+]([O-])=C1c1ccccc1,–,> 100,–,> 100,–,> 100,–,> 100,–,> 100,–,> 100,–,> 100,–,–,–,> 100,–,> 100
